Measurements from US8445503B2, “Inhibitors of polo-like kinase” (Elan Pharmaceuticals, Inc., priority 2009, dated 2013).

Assays:
PLK2 = PLK2 (Homo sapiens, UniProt Q9NYY3); experiment: Kinase panel screening at InVitrogen Corporation, PLK2; details: screening at 10 μM compound
PLK1 = PLK1 (Homo sapiens, UniProt P53350); experiment: Kinase panel screening at InVitrogen Corporation, PLK1; details: screening at 10 μM compound
GST-PLK3 = biological target: T1, GST-PLK3 (Homo sapiens, UniProt Q9H4B4); experiment: PLK TR-FRET peptide assay, PLK3; assay type: biochemical; details: PLK TR-FRET peptide assay, GST-PLK3; read-out: Plk3 IC50
T1 construct: purchased CarnaBio
T1 sequence (Q9H4B4 whole entry): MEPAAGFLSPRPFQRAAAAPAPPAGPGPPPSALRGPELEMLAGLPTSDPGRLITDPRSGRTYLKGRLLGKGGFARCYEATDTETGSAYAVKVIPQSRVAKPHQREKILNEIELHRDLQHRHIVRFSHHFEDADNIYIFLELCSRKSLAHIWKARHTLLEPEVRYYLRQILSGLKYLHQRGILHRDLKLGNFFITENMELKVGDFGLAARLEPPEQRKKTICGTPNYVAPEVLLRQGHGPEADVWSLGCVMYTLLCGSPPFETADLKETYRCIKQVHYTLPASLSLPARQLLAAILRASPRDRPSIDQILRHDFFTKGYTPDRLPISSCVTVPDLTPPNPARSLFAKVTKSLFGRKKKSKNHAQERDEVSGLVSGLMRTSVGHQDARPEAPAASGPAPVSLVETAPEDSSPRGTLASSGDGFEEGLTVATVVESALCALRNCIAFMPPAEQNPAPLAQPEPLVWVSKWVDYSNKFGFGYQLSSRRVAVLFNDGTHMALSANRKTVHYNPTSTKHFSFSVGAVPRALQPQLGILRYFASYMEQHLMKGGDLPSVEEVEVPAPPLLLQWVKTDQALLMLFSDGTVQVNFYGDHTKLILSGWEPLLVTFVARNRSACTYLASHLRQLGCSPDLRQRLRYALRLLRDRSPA

GST-PLK2 = biological target: T2, GST-PLK2 (Homo sapiens, UniProt Q9NYY3); experiment: PLK TR-FRET peptide assay, PLK2; assay type: biochemical; details: PLK TR-FRET peptide assay, GST-PLK2; read-out: Plk2 IC50
T2 construct: purchased CarnaBio
T2 sequence (Q9NYY3 whole entry): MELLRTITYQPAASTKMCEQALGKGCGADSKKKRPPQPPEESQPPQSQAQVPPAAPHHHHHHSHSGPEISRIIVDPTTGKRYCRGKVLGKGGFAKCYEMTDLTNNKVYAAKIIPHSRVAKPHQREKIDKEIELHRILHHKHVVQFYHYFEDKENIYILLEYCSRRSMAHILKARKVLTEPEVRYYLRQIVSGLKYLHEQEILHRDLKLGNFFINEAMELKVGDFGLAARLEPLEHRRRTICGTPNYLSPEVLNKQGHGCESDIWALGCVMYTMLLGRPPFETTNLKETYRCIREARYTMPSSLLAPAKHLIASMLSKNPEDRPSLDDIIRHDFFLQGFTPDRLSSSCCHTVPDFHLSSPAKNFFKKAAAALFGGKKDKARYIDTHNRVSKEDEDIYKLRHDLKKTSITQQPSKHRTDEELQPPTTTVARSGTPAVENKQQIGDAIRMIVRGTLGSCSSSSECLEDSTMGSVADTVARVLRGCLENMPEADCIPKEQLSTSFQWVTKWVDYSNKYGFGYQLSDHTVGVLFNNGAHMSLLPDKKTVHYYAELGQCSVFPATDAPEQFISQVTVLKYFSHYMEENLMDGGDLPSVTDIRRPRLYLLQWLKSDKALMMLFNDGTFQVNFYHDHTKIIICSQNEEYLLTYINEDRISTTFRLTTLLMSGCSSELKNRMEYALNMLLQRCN

GST-PLK1 = GST-PLK1 (Homo sapiens, UniProt P53350); experiment: PLK TR-FRET peptide assay, PLK1; assay type: biochemical; details: read-out: Plk1 IC50
Chain of GST-PLK1 (P53350 whole entry): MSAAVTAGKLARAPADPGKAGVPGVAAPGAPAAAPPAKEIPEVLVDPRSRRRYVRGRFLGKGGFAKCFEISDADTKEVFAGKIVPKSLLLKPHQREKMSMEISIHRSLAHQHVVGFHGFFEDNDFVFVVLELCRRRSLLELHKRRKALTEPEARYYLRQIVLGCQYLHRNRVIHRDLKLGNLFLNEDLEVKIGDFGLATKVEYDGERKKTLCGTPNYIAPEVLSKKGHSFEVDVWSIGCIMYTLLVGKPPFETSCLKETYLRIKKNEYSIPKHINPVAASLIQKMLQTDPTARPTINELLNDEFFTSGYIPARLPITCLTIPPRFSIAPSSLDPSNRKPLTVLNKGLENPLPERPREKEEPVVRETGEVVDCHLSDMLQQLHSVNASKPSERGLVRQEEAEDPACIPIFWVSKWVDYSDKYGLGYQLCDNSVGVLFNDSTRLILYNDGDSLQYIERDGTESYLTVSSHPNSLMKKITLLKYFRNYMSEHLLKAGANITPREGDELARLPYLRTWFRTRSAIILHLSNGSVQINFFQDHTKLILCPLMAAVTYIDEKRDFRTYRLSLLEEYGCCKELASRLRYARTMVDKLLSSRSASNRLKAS

[1] = test system: over 300 kinases, including CDK-1, CDK-2, CDK-5, CLK-1, CLK-2, CLK-3, CLK-4, NEK-1, NEK-2, NEK-4, NEK-6, NEK-7, MAP4K4 and STK16; experiment: Kinase panel screening at InVitrogen Corporation, over 300 kinases; details: 10 μM compound; all but 21 of over 300 kinases, including CDK-1, CDK-2, CDK-5, CLK-1 to CLK-4, NEK-1, -2, -4, -6, -7, MAP4K4, STK16
KDR = KDR (Homo sapiens, UniProt P35968); experiment: Kinase panel screening and titration, KDR
Chain of KDR (P35968 20-1356): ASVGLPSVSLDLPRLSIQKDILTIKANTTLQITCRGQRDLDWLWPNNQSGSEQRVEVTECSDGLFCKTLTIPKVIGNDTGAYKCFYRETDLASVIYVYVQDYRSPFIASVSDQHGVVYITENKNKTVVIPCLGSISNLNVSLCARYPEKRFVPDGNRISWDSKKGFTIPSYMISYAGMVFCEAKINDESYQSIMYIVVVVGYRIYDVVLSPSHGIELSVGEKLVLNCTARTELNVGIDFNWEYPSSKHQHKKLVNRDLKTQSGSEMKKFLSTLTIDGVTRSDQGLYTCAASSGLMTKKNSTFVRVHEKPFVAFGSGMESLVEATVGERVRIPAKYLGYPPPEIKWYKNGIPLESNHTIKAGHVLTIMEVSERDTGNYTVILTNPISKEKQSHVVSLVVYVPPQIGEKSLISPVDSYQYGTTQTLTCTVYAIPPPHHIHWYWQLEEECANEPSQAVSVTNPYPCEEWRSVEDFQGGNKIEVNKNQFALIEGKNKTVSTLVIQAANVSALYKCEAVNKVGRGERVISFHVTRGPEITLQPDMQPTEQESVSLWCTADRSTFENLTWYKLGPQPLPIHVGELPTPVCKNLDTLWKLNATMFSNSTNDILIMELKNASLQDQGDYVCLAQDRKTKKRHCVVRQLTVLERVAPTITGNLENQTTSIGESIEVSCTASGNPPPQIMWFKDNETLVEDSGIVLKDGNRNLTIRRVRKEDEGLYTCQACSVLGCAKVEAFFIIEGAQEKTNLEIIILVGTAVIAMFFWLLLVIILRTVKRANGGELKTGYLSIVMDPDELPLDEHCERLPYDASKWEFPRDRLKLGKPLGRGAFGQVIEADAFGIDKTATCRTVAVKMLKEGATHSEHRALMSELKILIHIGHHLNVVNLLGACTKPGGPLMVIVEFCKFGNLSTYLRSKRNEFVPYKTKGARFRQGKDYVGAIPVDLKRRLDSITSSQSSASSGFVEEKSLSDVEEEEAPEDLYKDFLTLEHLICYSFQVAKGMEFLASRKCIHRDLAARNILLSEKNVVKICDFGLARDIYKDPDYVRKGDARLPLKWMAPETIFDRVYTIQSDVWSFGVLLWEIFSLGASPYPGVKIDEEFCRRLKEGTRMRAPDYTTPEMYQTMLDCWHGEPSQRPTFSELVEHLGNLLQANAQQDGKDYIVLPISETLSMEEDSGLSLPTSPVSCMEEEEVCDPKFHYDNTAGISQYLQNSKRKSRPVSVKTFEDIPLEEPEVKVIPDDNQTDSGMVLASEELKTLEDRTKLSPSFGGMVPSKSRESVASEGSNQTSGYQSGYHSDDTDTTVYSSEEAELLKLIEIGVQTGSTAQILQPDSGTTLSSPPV

ABL1 = ABL1 (Homo sapiens, UniProt P00519); experiment: Kinase panel screening and titration, ABL1
Chain of ABL1 (P00519 whole entry): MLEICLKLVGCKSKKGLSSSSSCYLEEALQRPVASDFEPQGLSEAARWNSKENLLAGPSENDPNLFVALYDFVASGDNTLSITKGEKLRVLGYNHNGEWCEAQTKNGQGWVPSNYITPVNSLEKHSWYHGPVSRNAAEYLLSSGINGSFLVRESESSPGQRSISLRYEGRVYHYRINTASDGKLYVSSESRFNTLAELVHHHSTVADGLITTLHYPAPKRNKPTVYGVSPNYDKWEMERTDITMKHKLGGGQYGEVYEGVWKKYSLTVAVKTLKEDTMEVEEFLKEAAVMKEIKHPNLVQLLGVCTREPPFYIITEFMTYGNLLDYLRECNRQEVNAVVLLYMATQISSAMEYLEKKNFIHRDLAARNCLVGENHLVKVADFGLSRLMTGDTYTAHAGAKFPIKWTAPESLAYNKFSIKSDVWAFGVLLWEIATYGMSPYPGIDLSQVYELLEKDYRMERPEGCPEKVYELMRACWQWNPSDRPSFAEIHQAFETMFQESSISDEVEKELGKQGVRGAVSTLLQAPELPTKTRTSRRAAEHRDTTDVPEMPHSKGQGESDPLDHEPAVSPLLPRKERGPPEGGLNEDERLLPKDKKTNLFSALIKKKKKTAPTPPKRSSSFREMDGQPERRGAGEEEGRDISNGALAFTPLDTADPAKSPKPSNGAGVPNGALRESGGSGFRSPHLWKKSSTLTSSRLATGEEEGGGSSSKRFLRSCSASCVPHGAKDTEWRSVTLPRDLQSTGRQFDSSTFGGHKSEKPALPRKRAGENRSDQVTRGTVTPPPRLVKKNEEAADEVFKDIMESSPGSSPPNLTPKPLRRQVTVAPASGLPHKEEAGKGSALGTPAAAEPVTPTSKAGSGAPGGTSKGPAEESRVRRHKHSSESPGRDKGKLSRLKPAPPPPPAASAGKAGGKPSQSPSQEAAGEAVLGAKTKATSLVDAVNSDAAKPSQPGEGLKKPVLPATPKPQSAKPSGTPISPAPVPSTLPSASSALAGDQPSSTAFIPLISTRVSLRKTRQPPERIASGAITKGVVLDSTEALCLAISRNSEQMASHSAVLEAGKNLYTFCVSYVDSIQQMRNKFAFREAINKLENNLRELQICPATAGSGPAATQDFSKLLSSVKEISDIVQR

Chain of PLK2 (Q9NYY3 whole entry): as the sequence (Q9NYY3 whole entry) above
Chain of PLK1 (P53350 whole entry): as the sequence (P53350 whole entry) above

SMILES	activity against PLK2 in kinase panel (PLK2)	activity against PLK1 in kinase panel (PLK1)	IC50 (GST-PLK3)	IC50 (GST-PLK2)	IC50 (GST-PLK1)	other results
CC[C@@H]1C(=O)N(C)c2cnc(-n3ccnc3-c3ccccc3)nc2N1C1CCCC1 [Example 26, (R)-8-cyclopentyl-7-ethyl-5-methyl-2-(2-phenyl-1H-imidazol-1-yl)-7,8-dihydropteridin-6(5H)-one]	potent	–	–	–	–	–
CC[C@@]12CCCN1c1nc(-n3ccnc3-c3ccccc3)ncc1N(C)C2=O [Example 76, (S)-6a-ethyl-5-methyl-2-(2-phenyl-1H-imidazol-1-yl)-6a,7,8,9-tetrahydropyrrolo[2,1-h]pteridin-6(5H)-one]	potent	potent	1 to 10 µM	< 1 µM	10 to 50 µM	–
CC[C@@H]1C(=O)N(C)c2cnc(-n3ccnc3-c3cccc(F)c3)nc2N1C1CCOC1 (stereo partly drawn) [Example 192]	potent	potent	–	–	–	percent inhibition of kinase [1]: below 40%; percent inhibition of KDR (KDR; 10 μM compound): greater than 80%; IC50 (KDR; read-out: IC50 KDR, when titrated): > 10 µM; percent inhibition of ABL1 (ABL1; 10 μM compound): greater than 80%; IC50 (ABL1; read-out: IC50 ABL1, when titrated): > 10 µM
CCC1C(=O)N(C)c2cnc(-c3c[nH]nc3-c3ccc(F)cc3F)nc2N1c1ccn(C)n1 (stereo not drawn) [Example 420, 2-(3-(2,4-difluorophenyl)-1H-pyrazol-4-yl)-7-ethyl-5-methyl-8-(1-methyl-1H-pyrazol-3-yl)-7,8-dihydropteridin-6(5H)-one]	–	–	< 1 µM	< 1 µM	< 1 µM	–

Now from value to compound, other results behind:

activity against PLK2 in kinase panel (PLK2)	activity against PLK1 in kinase panel (PLK1)	IC50 (GST-PLK3)	IC50 (GST-PLK2)	IC50 (GST-PLK1)	SMILES	other results
potent	potent	–	–	–	CC[C@@H]1C(=O)N(C)c2cnc(-n3ccnc3-c3cscn3)nc2N1C1CCCC1 [Example 68]	–
–	–	> 50 µM	> 50 µM	> 50 µM	CC[C@]12COCCN1c1nc(-c3cnoc3-c3ccccc3)ncc1N(C)C2=O [Example 414, (R)-6a-ethyl-5-methyl-2-(5-phenylisoxazol-4-yl)-6a,7,9,10-tetrahydro-[1,4]oxazino[3,4-h]pteridin-6(5H)-one]	–
–	–	> 50 µM	1 to 10 µM	> 50 µM	CC[C@@]12COCCN1c1nc(-c3snnc3-c3ccc(F)cn3)ncc1N(C)C2=O [Example 415, (S)-6a-ethyl-2-(4-(5-fluoropyridin-2-yl)-1,2,3-thiadiazol-5-yl)-5-methyl-6a,7,9,10-tetrahydro-[1,4]oxazino[3,4-h]pteridin-6(5H)-one]	–
–	–	> 50 µM	10 to 50 µM	> 50 µM	CC[C@]12COCCN1c1nc(-c3snnc3-c3ccc(F)cn3)ncc1N(C)C2=O [Example 416, (R)-6a-ethyl-2-(4-(5-fluoropyridin-2-yl)-1,2,3-thiadiazol-5-yl)-5-methyl-6a,7,9,10-tetrahydro-[1,4]oxazino[3,4-h]pteridin-6(5H)-one]	–
–	–	> 50 µM	< 1 µM	10 to 50 µM	CC[C@@H]1C(=O)N(C)c2cnc(-c3cn(C)nc3-c3nccs3)nc2N1c1cnn(C)c1 [Example 417, (R)-7-ethyl-5-methyl-8-(1-methyl-1H-pyrazol-4-yl)-2-(1-methyl-3-(thiazol-2-yl)-1H-pyrazol-4-yl)-7,8-dihydropteridin-6(5H)-one]	–
